Measurements as given in US20110053900A1, “PROGESTERONE ANTAGONISTS SUCH AS CDB-4124 IN THE TREATMENT OF BREAST CANCER” (Repros Therapeutics inc, priority 2008, published 2011).
Marks after values point to notes of the source that are not given here.

Columns and labels:
[1] = test system: rat tumors; experiment: Apoptosis in tumors; type: in vivo; settings: 10 mg/kg
Protocol: Apoptosis was evaluated in the same tumors by an apoptosis hybridization kit (Oncor, Gaithersburg, Md.). The cells in apoptosis were evaluated in the peripheral areas of the tumors and far from necrosis. At least 1,000 cells per tumor section were evaluated.

[2] = test system: DMBA-induced tumors of the rat mammary gland; experiment: DMBA-induced breast tumors: tumor number, size and tumor burden at necropsy; type: in vivo; settings: for Tumor Burden / Tumor Weight mean / Tumor Weight median / Number of Tumors: 28 days; for Number of Tumors: FA/AF excluded; for lowering of tumor burden and median tumor sizes: 10 mg/kg, versus control
Protocol: (§1) To induce breast tumors, Sprague-Dawley female rats were given 10 mg/kg body weight of DMBA at 50 days of age. One group of 14 rats (Group 2) received sesame oil at 50 days of age instead of DMBA to serve as the no-DMBA controls. Animals were weighed and palpated weekly along the milk line for any sign of lesions or swellings. Tumor nodules were noted and measured weekly in two dimensions with calipers. When tumors grew to a size of 10-12 mm in any dimension, the individual animal was randomized into one of 14 groups. Tumors appeared as soon as 39 days after oral gavage and as late as 194 days (latter individual not included in study). The mean latency period for tumor appearance was 106±30 days.
(§2) Animals were treated for 28 days on the following schedule. Group 1 received daily subcutaneous (s.c.) injections of vehicle (10% ethanol in sesame oil). Group 2 (no DMBA control group-no tumors expected) received vehicle on a schedule decided beforehand to simulate initiation of treatment over a three-month time period. […] Groups 5 through 9 received 20 mg/kg, 10 mg/kg, 2 mg/kg, 1 mg/kg and 0.1 mg/kg of CDB-4124, respectively. Groups 10 through 14 mirrored the treatment given 5 through 9 except that 10 mg/kg of micronized progesterone was also added as a component to compositions for injections.
(§3) Animals were sacrificed 3-5 days after the end of the 28-day treatment period, blood was drawn, and tumors were removed, weighed, measured, inspected, and portions frozen and/or placed in 10% phosphate buffered formalin for histopathology. The tissue samples were cut and stained with hematoxylin and eosin and were evaluated for histopathological classification.
The results in Table 3 are those for ACA, PCA and mixed ACA/PCA, but the FA or AF tumors are excluded.

[3] = Serum cortisol by ELISA; type: in vivo, rat; settings: 10 mg/kg, 21 days of dosing
Protocol: (§4) The animals were assessed three times for their levels of progesterone: initially, when they were about to go on treatment; a second time after 21 days of treatment; and finally after treatment at sacrifice which was 2-4 days after the last s.c. injection. All blood samples were taken by heart puncture; serum was prepared and held frozen at −40° C. The levels of the steroid hormones progesterone, cortisol, and corticosterone were determined by ELISA.
(§5) The concentrations of steroid hormones were determined three times during the study: before the beginning of treatments, after 21 days of treatment and finally after treatment at sacrifice which was 2-4 days after the last s.c. injection. All samples were taken by heart puncture. Serum was obtained and held frozen at −40° C. The levels of steroid hormones were determined by ELISA.

[4] = Serum progesterone by ELISA; type: in vivo, rat; settings: for Serum Progesterone, Before TX (mean): before treatment; for Serum Progesterone, During TX (mean): after 21 days of treatment; for Serum Progesterone, After TX (mean): at sacrifice 2-4 days after the last s.c. injection
Protocol: as §4, §5

[5] = test system: rat tumors (proliferation marker Ki-67); experiment: Tumor proliferation by Ki-67 immunohistochemistry; type: in vivo; settings: 10 mg/kg
Description: In order to assess the effects of progestins and anti-progestins on cell proliferation, tissue sections derived from 46 individual rat tumors from treated an control animals were examined by measuring expression of the proliferation marker Ki-67 using the Ki-67 antibody (NeoMarkers, Fremont, Calif.) and immunohistochemistry. Despite the reduction in size of many tumors in Groups 3 and 6 following treatment in Groups 3 and 6 making them too small to be re-cut, 7-12 ACAs from Groups 1, 3, 4, 6 and 11 were re-cut. The results of proliferation experiments, in which proliferation was measured as a percentage of cells expressing Ki-67, are summarized in Table 4: […]

[6] = test system: DMBA-induced tumors of the rat mammary gland; experiment: DMBA-induced breast tumors: tumor progression (growth pattern); type: in vivo; settings: 10 mg/kg
Protocol: as §1, §2
In order to evaluate the effects of CDB-4124, RU486 and progesterone on tumor development and progression, growth kinetics and tumor size were monitored during the treatment period. Individual tumors from animals with tumors in the study were measured weekly in two dimensions with calipers. The data is corrected to exclude the non-malignant FA/AF tumor types. Tumors that increased in cross-sectional area by at least 33% over the 28-day inspection period were considered to be growing (FIG. 1, black boxes). Those that decreased by approximately 33% were considered to be regressing (FIG. 1, white boxes). Others were considered to be static (FIG. 1, gray boxes).

[7] = test system: DMBA-induced tumors of the rat mammary gland; experiment: DMBA-induced breast tumors: tumor number and tumor type at necropsy; type: in vivo; settings: for ACA + PCA per rat / ACA per rat / FA/AF no. / Incidence of tumors (%) / Incidence of tumors (rats with tumors/rats) / PCA per rat: 28 days
Protocol: as §1, §2, §3
Histologically, four types of tumors were identified (Table 2): adenocarcinomas (ACAs), papillary carcinomas (PCAs), a fibrosarcoma, and fibroadenomas or adenofibromas (FA or AF), the latter two tumor types were not considered to represent frank malignancies.

COCC(=O)[C@@]1(OC(C)=O)CC[C@H]2[C@@H]3CCC4=CC(=O)CCC4=C3[C@@H](c3ccc(N(C)C)cc3)C[C@@]21C [CDB-4124, 21-methoxy-17α-acetoxy-11β-(4 N,N-dimethylaminophenyl)-19-norpregna-4,9-diene-3,20-dione]
Apoptosis, % cells positive [1]: 3.84 ± 3.10% | Tumor Burden ([2]; 0.1 mg/kg s.c. daily): 5.1 g/rat | Tumor Weight mean ([2]; 0.1 mg/kg s.c. daily): 2.26 g | Tumor Weight median ([2]; 0.1 mg/kg s.c. daily): 0.17 g | Number of Tumors ([2]; 0.1 mg/kg s.c. daily): 29 | Tumor Burden ([2]; 1 mg/kg s.c. daily): 0.94 g/rat | Tumor Weight mean ([2]; 1 mg/kg s.c. daily): 0.53 g | Tumor Weight median ([2]; 1 mg/kg s.c. daily): 0.17 g | Number of Tumors ([2]; 1 mg/kg s.c. daily): 16 | Tumor Burden ([2]; 2 mg/kg s.c. daily): 4.61 g/rat | Tumor Weight mean ([2]; 2 mg/kg s.c. daily): 2.98 g | Tumor Weight median ([2]; 2 mg/kg s.c. daily): 0.09 g | Number of Tumors ([2]; 2 mg/kg s.c. daily): 17 | Tumor Burden ([2]; 10 mg/kg s.c. daily): 0.48 g/rat | Tumor Weight mean ([2]; 10 mg/kg s.c. daily): 0.26 g | Tumor Weight median ([2]; 10 mg/kg s.c. daily): 0.075 g | Number of Tumors ([2]; 10 mg/kg s.c. daily): 18 | lowering of tumor burden and median tumor sizes [2]: 10 fold | Tumor Burden ([2]; 20 mg/kg s.c. daily): 4.71 g/rat | Tumor Weight mean ([2]; 20 mg/kg s.c. daily): 3.4 g | Tumor Weight median ([2]; 20 mg/kg s.c. daily): 0.125 g | Number of Tumors ([2]; 20 mg/kg s.c. daily): 20 | serum cortisol versus control group (in words) [3]: significantly higher levels of serum cortisol | Serum Progesterone, Before TX (mean) ([4]; 0.1 mg/kg group): 54 ng/mL | Serum Progesterone, During TX (mean) ([4]; 0.1 mg/kg): 53 ng/mL | Serum Progesterone, After TX (mean) ([4]; 0.1 mg/kg): 53 ng/mL | Serum Progesterone, Before TX (mean) ([4]; 1 mg/kg group): 64 ng/mL | Serum Progesterone, During TX (mean) ([4]; 1 mg/kg): 47 ng/mL | Serum Progesterone, After TX (mean) ([4]; 1 mg/kg): 42 ng/mL | Serum Progesterone, Before TX (mean) ([4]; 2 mg/kg group): 59 ng/mL | Serum Progesterone, During TX (mean) ([4]; 2 mg/kg): 74* ng/ml | Serum Progesterone, After TX (mean) ([4]; 2 mg/kg): 56 ng/mL | Serum Progesterone, Before TX (mean) ([4]; 10 mg/kg group): 52 ng/mL | Serum Progesterone, During TX (mean) ([4]; 10 mg/kg): 77* ng/ml | Serum Progesterone, After TX (mean) ([4]; 10 mg/kg): 43 ng/mL | Serum Progesterone, Before TX (mean) ([4]; 20 mg/kg group): 61 ng/mL | Serum Progesterone, During TX (mean) ([4]; 20 mg/kg): 96* ng/ml | Serum Progesterone, After TX (mean) ([4]; 20 mg/kg): 58 ng/mL | Proliferating tumor cells by Ki-67, % cells positive [5]: 5.1 ± 4.2% | proportion of tumors regressing ([6]; decrease of cross-sectional area by about 33% over 28 days): 70% | ACA + PCA per rat ([7]; 0.1 mg/kg s.c. daily): 2.25 | ACA per rat ([7]; 0.1 mg/kg s.c. daily): 1.17 | FA/AF no. ([7]; 0.1 mg/kg s.c. daily): 3 | Incidence of tumors (%) ([7]; 0.1 mg/kg s.c. daily): (100) % | Incidence of tumors (rats with tumors/rats) ([7]; 0.1 mg/kg s.c. daily): 12/12 | PCA per rat ([7]; 0.1 mg/kg s.c. daily): 0.83 | ACA + PCA per rat ([7]; 1 mg/kg s.c. daily): 1.78 | ACA per rat ([7]; 1 mg/kg s.c. daily): 1.67 | FA/AF no. ([7]; 1 mg/kg s.c. daily): 2 | Incidence of tumors (%) ([7]; 1 mg/kg s.c. daily): (82) % | Incidence of tumors (rats with tumors/rats) ([7]; 1 mg/kg s.c. daily): 9/11 | PCA per rat ([7]; 1 mg/kg s.c. daily): 0.11 | ACA + PCA per rat ([7]; 2 mg/kg s.c. daily): 1.55 | ACA per rat ([7]; 2 mg/kg s.c. daily): 1.45 | FA/AF no. ([7]; 2 mg/kg s.c. daily): 2 | Incidence of tumors (%) ([7]; 2 mg/kg s.c. daily): (92) % | Incidence of tumors (rats with tumors/rats) ([7]; 2 mg/kg s.c. daily): 11/12 | PCA per rat ([7]; 2 mg/kg s.c. daily): 0.09 | ACA + PCA per rat ([7]; 10 mg/kg s.c. daily): 1.70 | ACA per rat ([7]; 10 mg/kg s.c. daily): 1.5 | FA/AF no. ([7]; 10 mg/kg s.c. daily): 1 | Incidence of tumors (%) ([7]; 10 mg/kg s.c. daily): (91) % | Incidence of tumors (rats with tumors/rats) ([7]; 10 mg/kg s.c. daily): 10/11 | PCA per rat ([7]; 10 mg/kg s.c. daily): 0.2 | ACA + PCA per rat ([7]; 20 mg/kg s.c. daily): 1.38 | ACA per rat ([7]; 20 mg/kg s.c. daily): 1.31 | FA/AF no. ([7]; 20 mg/kg s.c. daily): 3 | Incidence of tumors (%) ([7]; 20 mg/kg s.c. daily): (100) % | Incidence of tumors (rats with tumors/rats) ([7]; 20 mg/kg s.c. daily): 13/13 | PCA per rat ([7]; 20 mg/kg s.c. daily): 0.08 | average multiplicity across the highest four treatment groups ([7]; 20, 10, 2, 1 mg/kg/day): 1.58 tumors per rat

CC#C[C@]1(O)CC[C@H]2[C@@H]3CCC4=CC(=O)CCC4=C3[C@@H](c3ccc(N(C)C)cc3)C[C@@]21C [RU 486, mifepristone, reference compound]
Apoptosis, % cells positive [1]: 3.34 ± 2.57% | Tumor Burden ([2]; 10 mg/kg s.c. daily): 2.47 g/rat | Tumor Weight mean ([2]; 10 mg/kg s.c. daily): 1.19 g | Tumor Weight median ([2]; 10 mg/kg s.c. daily): 0.16 g | Number of Tumors ([2]; 10 mg/kg s.c. daily): 27 | lowering of tumor burden and median tumor sizes [2]: 5 fold | serum cortisol versus control group (in words) [3]: no significant difference in the levels of cortisol | Serum Progesterone, Before TX (mean) ([4]; 10 mg/kg group): 58 ng/mL | Serum Progesterone, During TX (mean) ([4]; 10 mg/kg): 72* ng/ml | Serum Progesterone, After TX (mean) ([4]; 10 mg/kg): 52 ng/mL | Proliferating tumor cells by Ki-67, % cells positive [5]: 12.9 ± 7.0% | effect on tumor growth pattern (in words) ([6]; compared to the controls): apparent increase in the proportion of regressing tumors | ACA + PCA per rat ([7]; 10 mg/kg s.c. daily): 2.00 | ACA per rat ([7]; 10 mg/kg s.c. daily): 2.08 | FA/AF no. ([7]; 10 mg/kg s.c. daily): 1 | Incidence of tumors (%) ([7]; 10 mg/kg s.c. daily): (93) % | Incidence of tumors (rats with tumors/rats) ([7]; 10 mg/kg s.c. daily): 13/14 | PCA per rat ([7]; 10 mg/kg s.c. daily): 0.08
